Experimental data as given in the NIST ThermoML archive (doi:10.1021/acs.jced.8b00064).

Tests used:
[1] = for vapor or sublimation pressure: Liquid, Closed cell (Static) method
[2] = Molar enthalpy of transition or fusion; details: Crystal; DSC
[3] = molar heat capacity at constant pressure; details: 101.33 kPa, Crystal, DSC

CCCCO [butan-1-ol]
[1]
Details | vapor or sublimation pressure [kPa]
333.2 K | 8.1
348.2 K | 17.5

O=C(O)CC(O)(CC(=O)O)C(=O)O [citric acid]
Details | Normal melting temperature [°C]
[1], Crystal, DTA | 151.8

Details | Molar enthalpy of transition or fusion [kJ/mol]
[2] | 59.2

[3]
Details | molar heat capacity at constant pressure [J/K/mol]
324.9 K | 239.8
328.2 K | 243
331.5 K | 245.9
334.9 K | 248.6
338.2 K | 251.2
341.5 K | 253.6
344.9 K | 255.9
348.2 K | 258.2
351.5 K | 260.4
354.9 K | 262.5
358.2 K | 264.6
361.5 K | 266.6
364.9 K | 268.7
368.2 K | 270.7
371.5 K | 272.6
374.9 K | 274.5
378.2 K | 276.2
381.5 K | 278.1
384.9 K | 279.9
388.2 K | 281.8
391.5 K | 283.7
394.9 K | 286
